Experimental data as given in US20250368624A1, “M24B AMINOPEPTIDASE INHIBITORS FOR CARD8 INFLAMMASOME ACTIVATION” (Memorial Sloan-Kettering Cancer Center, priority 2022, published 2025).

Key:
[1] = system: MV4;11 CASP1-/- cells; test: CellTiter-Glo cell viability, CASP1-/- MV4;11 cells; type: cell-based; settings: Homo sapiens, MV4-11; 24 h, CTG
Experimental: Cloning. CASP1^−/− MV4;11 cells^12; CARD8^−/− MV4;11, THP-1, OCI-AML2 cells^14; DPP8/9^−/− THP-1^12; PEPD^−/−, XPNPEP1^−/−, PEPD XPNPEP1^−/− THP-1 cells were generated. Plasmids for CARD8 variants, CASP1, GSDMD, dTAG-CARD8^ZUC were cloned as described previously (Hollingsworth et al., 2021; Johnson et al., 2018; Sharif et al., 2021).
(§1) CellTiter-Glo cell viability and CytoTox-Fluor cell death assays. Cells were plated (2,000 cells per well) in white, 384-well clear-bottom plates (Corning) using an EL406 Microplate Washer/Dispenser (BioTek) in 25 μL final volume of medium. To the cell plates were added compounds at different concentrations using a pintool (CyBio) and the plates were allowed to incubate in the incubator. After incubation for indicated times, CytoTox-Fluor reagent (Promega, G9262) was added according to the manufacturer's protocol. The assay plates were then incubated for another 30 min before fluorescence was recorded using a Cytation 5 Cell Imaging Multi-Mode Reader (BioTek). Next, CellTiter-Glo reagent (Promega, G7573) was subsequently added to the assay plates following the manufacturer's protocol. Assay plates were shaken on an orbital shaker for 2 min and incubated at 25° C. for 10 min. Luminescence was then read using a Cytation 5 Cell Imaging Multi-Mode Reader (BioTek).

[2] = system: OCI-AML2 cells; test: Propidium iodide uptake, OCI-AML2 cells; type: cell-based; settings: 6.25 μM, compared to CQ31
Experimental: Propidium iodideflux analysis. 2×10^4 MV4;11 or OCI-AML2 cells were plated in 384-well, black, clear-bottom plate (Corning) in RPMI medium. Cells were then treated as indicated and propidium iodide (PI) was added at a final concentration of 10 μM. PI fluorescence was measured at (Ex/Em: 535/617 nm) recorded at 37° C. every 5 mins in a Cytation 5 Cell Imaging Multi-Mode Reader (BioTek). The obtained measurements were baseline corrected to vehicle/DMSO and normalized to maximum response.

[3] = system: MV4;11, OCI-AML2, and THP-1 cells; test: LDH release and GSDMD cleavage immunoblot; type: cell-based; settings: WT vs CARD8-/- cells, 20 μM, 24 h
Experimental: (§2) LDH cytotoxicity and immunoblotting assays. HEK293T cells were transiently transfected and treated with inhibitors as indicated. MV4;11, OCI AML2, THP-1, and RAW264.7 cells were plated in 12-well culture plates at 5×10^5 cells/well and treated as indicated. Supernatants were analyzed for LDH activity using the Pierce LDH Cytotoxicity Assay Kit (Life Technologies). LDH activity was quantified relative to a lysis control where cells were lysed in 80 μL of a 9% Triton X-100 solution. For immunoblotting, cells were washed 2× in PBS (pH=7.4), resuspended in PBS, and lysed by sonication. Protein concentrations were determined and normalized using the DCA Protein Assay kit (Bio-Rad). The samples were separated by SDS-PAGE, immunoblotted, and visualized using the Odyssey Imaging System (Li-Cor).

[4] = system: human resting T cells; test: GSDMD cleavage in human resting T cells; type: cell-based; settings: 20 μM, 24 h
Text: Human primary cell isolation and culture. Isolated human primary cells were obtained from Astarte Biologics. All cells were >90% purity, as validated by flow cytometry by Astarte Biologics. T cells were thawed in RPMI-1640 medium supplemented with 10% FBS and cultured in RPMI-1640 medium, 10% fetal bovine serum (FBS), and 30 U/mL IL-2 (Peprotech).
as §2

[5] = system: N/TERT-1 keratinocytes; test: Cell viability of N/TERT-1 keratinocytes (NLRP1 inflammasome); type: cell-based, human; settings: VbP 10 μM, CQ compounds 20 μM, 24 h, CTG
Experimental: Cell Culture. HEK293T, THP-1, RAW264.7 cells were purchased from ATCC. MV4;11, OCI-AML2 cells were purchased from DSMZ. N/TERT1 cells were a gift from the Rheinwald Lab (Dickson et al., 2000). HEK293T and RAW264.7 cells were grown in Dulbecco's Modified Eagle's Medium (DMEM) with L-glutamine and 10% fetal bovine serum (FBS). N/TERT1 cells were grown in Keratinocyte serum free medium (KSFM) supplemented with 1× penicillin/streptomycin, bovine pituitary extract (25 μg/ml) and epidermal growth factor (EGF) (0.2 ng/ml). All other cell lines were grown in Roswell Park Memorial Institute (RPMI) medium 1640 with L-glutamine and 10% fetal bovine serum (FBS). All cells were grown at 37° C. in a 5% CO2 atmosphere incubator. Cell lines were regularly tested for mycoplasma using the MycoAlert™ Mycoplasma Detection Kit (Lonza).
as §1

[6] = De-esterification in cell culture; type: in vitro ADME; settings: after 24 h

| SMILES | IC50 [1] [µM] | lytic cell death by uptake of propidium iodide [2] | LDH release and GSDMD cleavage [3] | GSDMD cleavage [4] | cell death in N/TERT-1 keratinocytes [5] | de-esterification to CQ04 in cell culture [6] |
| --- | --- | --- | --- | --- | --- | --- |
| COC(=O)[C@H](CC(C)C)NC(=O)[C@@H]1CCCN1C(=O)[C@@H](O)[C@H](N)CC(C)C [CQ80, Methyl ((2S,3R)-3-amino-2-hydroxy-5-methylhexanoyl)-L-prolyl-L-leucinate] | > 20 | more rapid lytic cell death | induced lactate dehydrogenase (LDH) release and GSDMD cleavage | induced GSDMD cleavage | Only VbP induced cell death | – |
| COC(=O)[C@@H]1CCCN1C(=O)[C@@H](O)[C@H](N)CC(C)C [CQ31] | > 100 | – | induced lactate dehydrogenase (LDH) release and GSDMD cleavage | induced GSDMD cleavage | Only VbP induced cell death | completely de-esterified |
